Data published in US20250057917A1, “COMPOSITION AND METHODS FOR TREATING RADIATION INDUCED INJURY” (Xequel Bio, Inc., priority 2023, published 2025).
Read-outs that look alike come from different tables or passages of the source. The star is where a group is joined. Biotin = O=C1N[C@H]2[C@H](CS[C@H]2CCCCC(=O)*)N1; Ahx = NCCCCCC(=O)O

Experiments:
keratinocyte [1] = conditions: aCT1 treatment, Student's t-test p<0.0001, n=8, FIG. 9A
From the text: (§1) Student's t-test, *p<0.0001; n=8; mean±SEM. […] Student's t-test, *p<0.0018; n=3; mean±SEM.

keratinocyte [2] = conditions: aCT1 treatment, Student's t-test p<0.0018, n=3, FIG. 9B
From the text: as §1

{Biotin-Ahx}-RQPKIWFPNRRKPWKKRPRPDDLEI-OH [aCT1]
keratinocyte proliferation (keratinocyte [1]): an increase in keratinocyte proliferation | keratinocyte proliferation (keratinocyte [1]; listed as aCT1 peptide): accelerated keratinocyte migration and proliferation | keratinocyte migration (keratinocyte [2]): an increase in keratinocyte migration | keratinocyte migration (keratinocyte [2]; listed as aCT1 peptide): accelerated keratinocyte migration and proliferation
